In patent US20260125359A1, “HETEROARYL COMPOUNDS AS MULTI-TARGET PROTEIN KINASE INHIBITORS” (FUJIAN HAIXI PHARMACEUTICALS CO., LTD., priority 2023, published 2026):

How the values were obtained:
[1] = target: KIT (Homo sapiens, UniProt P10721); experiment: KIT in vitro kinase activity assay (HTRF kinEASE TK); type: biochemical; conditions: for inhibition at 0.01 µM: compound 10 nM, read-out: KIT inhibition rate, 10 nM; for inhibition at 0.1 µM: compound 100 nM, read-out: KIT inhibition rate, 100 nM
KIT, sequence (P10721 26-976): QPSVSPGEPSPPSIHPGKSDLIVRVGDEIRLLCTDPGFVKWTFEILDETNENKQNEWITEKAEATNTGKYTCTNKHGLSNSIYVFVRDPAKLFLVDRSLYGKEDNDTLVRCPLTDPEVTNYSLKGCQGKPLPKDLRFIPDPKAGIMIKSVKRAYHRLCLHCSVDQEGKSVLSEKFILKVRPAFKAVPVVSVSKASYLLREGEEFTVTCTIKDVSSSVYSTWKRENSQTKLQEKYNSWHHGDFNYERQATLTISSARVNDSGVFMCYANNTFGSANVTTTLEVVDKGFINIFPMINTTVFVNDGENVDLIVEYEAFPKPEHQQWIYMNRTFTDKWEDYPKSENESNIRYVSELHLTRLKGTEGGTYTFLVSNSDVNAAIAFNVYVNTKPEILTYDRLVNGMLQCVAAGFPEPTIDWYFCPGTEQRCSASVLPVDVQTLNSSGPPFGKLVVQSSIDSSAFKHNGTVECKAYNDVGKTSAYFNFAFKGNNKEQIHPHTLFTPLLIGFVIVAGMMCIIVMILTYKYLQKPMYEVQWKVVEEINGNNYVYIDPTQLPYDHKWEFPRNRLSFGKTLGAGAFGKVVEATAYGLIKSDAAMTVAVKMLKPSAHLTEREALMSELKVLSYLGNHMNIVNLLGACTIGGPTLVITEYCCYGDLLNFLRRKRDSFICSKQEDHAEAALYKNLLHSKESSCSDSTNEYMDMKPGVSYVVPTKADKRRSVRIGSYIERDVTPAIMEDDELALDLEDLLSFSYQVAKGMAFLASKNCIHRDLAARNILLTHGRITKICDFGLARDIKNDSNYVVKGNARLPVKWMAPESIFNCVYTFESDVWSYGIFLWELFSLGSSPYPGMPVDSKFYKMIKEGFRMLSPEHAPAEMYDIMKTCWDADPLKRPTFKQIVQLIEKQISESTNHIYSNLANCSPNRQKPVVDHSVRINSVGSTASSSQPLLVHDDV
Description: (§1) CSF-1R, PDGFR-α, KDR (VEGFR2) and KIT in vitro Kinase Activity Assay:
(§2) • ENVISION (Perkinelmer, 2104) • White 384-well MicroPlate (Cat #264706, Nunc) • HTRF kinEASE TK kit main reagents (Cat #62TKOPEC, Cisbio) • TK-biotin substrate • Streptavidin-XL665 • TK Antibody-Cryptate • 5× Enzymatic buffer (5×KB) • Staphylococcal enterotoxin B (SEB) • HTRF Detection buffer • CSF-1R (Cat #PV3249, Invitrogen) • PDGFR-α (Cat #PV3811, Invitrogen) • KDR (Cat #PV3660, Invitrogen) • KIT (Cat #08-156, Carna) • ATP 10 mM (Cat #PV3227, Invitrogen) • DTT 1 M (Cat #D5545, Sigma) • MgCl2 1 M (Cat #M8266, Sigma) • MnCl2 1 M (Cat #244589, Sigma)
(§3) Dilute Substrate-TK and ATP to 5× of the reaction concentration using 1× Kinase Buffer.
(§4) Prepare the 5× enzyme working solution using 1× Kinase Buffer.
(§5) Prepare the 4×Sa-XL665 working solution using Detection Buffer.
(§6) Dilute TK-Ab-Cryptate 100 times using Detection Buffer to prepare the working solution.
(§7) After all reagents were prepared according to the methods described above, except for the enzyme, they were equilibrated to room temperature before starting the sample addition. • a) First, 2.5% DMSO solutions were prepared separately using the pre-prepared 1× kinase buffer (DMSO concentrations that were too high could affect the reaction, so the final concentration of DMSO was controlled at 1%). Then, the corresponding 2.5% DMSO solution for the enzyme was used to dilute the test compounds. Compounds were screened with two concentrations of 100 nM and 10 nM. Except for the control wells, 4 μL of the diluted test compound solution was added to the reaction wells, and 4 μL of the pre-prepared 2.5% DMSO solution was added to the control wells. • b) 2 μL of the pre-prepared TK-biotin substrate solution at the corresponding concentration for the kinase was added to all reaction wells. • c) 2 μL of the pre-prepared enzyme solution at the corresponding concentration was added to all reaction wells except the negative control wells. For the negative control wells, 2 μL of 1× kinase buffer corresponding to the enzyme was added to make up the volume. The plate was sealed with sealing film, mixed gently, and incubated at room temperature for 10 min to allow the compounds to fully interact with the enzyme. • d) 2 μL of the ATP solution at the corresponding concentration for the enzyme was added to all reaction wells to initiate the kinase reaction. ATP concentrations and reaction times for enzyme screening are shown in Table 26 • e) Five minutes before the end of the kinase reaction, the detection solution was prepared. The detection buffer from the kit was used to prepare detection solutions for Streptavidin-XL665 and TK antibody europium cryptate (1:100) at the appropriate concentrations for the two enzymes. • f) After the kinase reaction was completed, 5 μL of the diluted Streptavidin-XL665 solution was added to all reaction wells. After mixing, the diluted TK antibody europium cryptate detection solution was immediately added. • g) The plate was sealed and mixed, incubated at room temperature for 1 hour, and the fluorescence signal was detected using the ENVISION (PerkinElmer) instrument (excitation at 320 nm, emission at 665 nm and 615 nm). The inhibition rate for each well was calculated based on the full-activity control wells and background signal wells, and the average value of the replicates was taken.

[2] = target: PDGFR-α (Homo sapiens, UniProt P16234); experiment: PDGFR-α in vitro kinase activity assay (HTRF kinEASE TK); type: biochemical; conditions: for inhibition at 0.01 µM: compound 10 nM, read-out: PDGFRα inhibition rate, 10 nM; for inhibition at 0.1 µM: compound 100 nM, read-out: PDGFRα inhibition rate, 100 nM
PDGFR-α, sequence (P16234 24-1089): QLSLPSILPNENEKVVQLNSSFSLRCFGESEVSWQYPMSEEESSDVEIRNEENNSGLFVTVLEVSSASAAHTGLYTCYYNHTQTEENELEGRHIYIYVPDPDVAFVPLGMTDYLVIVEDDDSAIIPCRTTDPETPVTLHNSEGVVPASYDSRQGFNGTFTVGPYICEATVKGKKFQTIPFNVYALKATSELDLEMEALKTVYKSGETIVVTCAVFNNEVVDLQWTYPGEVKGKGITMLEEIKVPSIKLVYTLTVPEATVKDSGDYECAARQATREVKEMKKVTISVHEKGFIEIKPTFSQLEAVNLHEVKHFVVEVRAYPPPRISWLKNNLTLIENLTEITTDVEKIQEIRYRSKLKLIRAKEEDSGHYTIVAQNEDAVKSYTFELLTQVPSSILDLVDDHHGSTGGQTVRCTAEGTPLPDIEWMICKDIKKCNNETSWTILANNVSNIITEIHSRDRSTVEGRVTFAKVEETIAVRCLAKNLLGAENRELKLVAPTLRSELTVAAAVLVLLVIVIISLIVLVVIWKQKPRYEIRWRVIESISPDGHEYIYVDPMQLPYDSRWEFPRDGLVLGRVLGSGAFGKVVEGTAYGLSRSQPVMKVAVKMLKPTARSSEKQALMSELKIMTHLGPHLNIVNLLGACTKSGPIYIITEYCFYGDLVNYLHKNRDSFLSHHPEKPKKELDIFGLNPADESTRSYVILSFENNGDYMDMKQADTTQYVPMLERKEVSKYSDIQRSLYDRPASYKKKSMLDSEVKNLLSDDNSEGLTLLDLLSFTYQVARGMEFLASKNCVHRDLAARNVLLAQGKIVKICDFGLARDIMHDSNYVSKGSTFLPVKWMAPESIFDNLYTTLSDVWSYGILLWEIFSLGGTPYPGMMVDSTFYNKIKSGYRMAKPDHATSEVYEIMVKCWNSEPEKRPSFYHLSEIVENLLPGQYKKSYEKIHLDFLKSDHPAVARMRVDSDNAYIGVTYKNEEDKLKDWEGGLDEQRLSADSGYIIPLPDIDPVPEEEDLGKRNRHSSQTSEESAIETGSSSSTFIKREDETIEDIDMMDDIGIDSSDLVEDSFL
Description: as §1, §2, §3, §4, §5, §6, §7

inhibition at 0.01 µM [1]	inhibition at 0.1 µM [1]	inhibition at 0.01 µM [2]	inhibition at 0.1 µM [2]	SMILES
14.5%	38.8%	15.4%	57.8%	Cn1cc(-c2cncc(N[C@H]3CCc4c(Nc5noc(C(C)(C)C)n5)cccc43)c2)cn1 [Compound 42o]
56%	92.4%	88.5%	102%	Cn1cc2ncc(O[C@H]3CCc4c(C(=O)Nc5nn(C)c6cccc(F)c56)cccc43)cc2n1 [Compound 76aw]
59.1%	99.7%	90%	100%	Cn1ncc2ncc(N[C@H]3CCc4c(C(=O)Nc5cccc(C6CC6)c5)cccc43)cc21 [Compound 73, (S)—N-(3-cyclopropylphenyl)-1-((1-methyl-1H-pyrazolo[4,3-b]pyridin-6-yl)amino)-2,3-dihydro-1H-indene-4-carboxamide]
21.8%	63.7%	13.9%	74.3%	Cc1cc(NC(=O)c2cccc3c2CC[C@@H]3Oc2cncc(-c3cnn(C)c3)c2)cc(C)n1 [Compound 19k, (S)—N-(2,6-dimethylpyridin-4-yl)-1-((5-(1-methyl-1H-pyrazol-4-yl)pyridin-3-yl)oxy)-2,3-dihydro-1H-indene-4-carboxamide]
12.1%	53.9%	14.5%	67.2%	CN1CCc2nc(NC(=O)c3cccc4c3CC[C@@H]4Oc3cncc(-c4cnn(C)c4)c3)sc2C1 [Compound 19f]
60.1%	95%	75.5%	100%	CN1CCc2nc(NC(=O)c3cccc4c3CC[C@@H]4Nc3cncc(-c4cnn(C)c4)c3)sc2C1 [Compound 14ba]
2.4%	15.3%	7.7%	38.7%	CN(c1cncc(-c2cnn(C)c2)c1)[C@H]1CCc2c(C(=O)Nc3cncc(Cl)c3)cccc21 [Compound 21, (S)—N-(5-chloropyridin-3-yl)-1-(methyl (5-(1-methyl-1H-pyrazol-4-yl)pyridin-3-yl)amino)-2,3-dihydro-1H-indene-4-carboxamide]
35.3%	94.9%	29.3%	94.8%	Cn1cc2ncc(N[C@H]3CCc4c(C(=O)Nc5nc(C6CC6)cs5)cccc43)cc2n1 [Compound 74h, (S)—N-(4-cyclopropylthiazol-2-yl)-1-((2-methyl-2H-pyrazolo[4,3-b]pyridin-6-yl)amino)-2,3-dihydro-1H-indene-4-carboxamide]
23.4%	82%	26.8%	96.5%	Cn1ncc2ncc(N[C@H]3CCc4c(Nc5cc(C(C)(C)C)on5)cccc43)nc21 [Compound 86, (S)—N^4-(5-(tert-butyl)isoxazol-3-yl)-N1-(1-methyl-1H-pyrazolo[3,4-b]pyrazin-6-yl)-2,3-dihydro-1H-indene-1,4-diamine]
39.6%	79.1%	37.8%	89.3%	Cn1cc2ncc(O[C@H]3CCc4c(C(=O)Nc5cncc(Cl)c5)cccc43)cc2n1 [Compound 76ai]
73%	97.5%	78.7%	99.1%	Cc1cccc(NC(=O)c2cccc3c2CC[C@@H]3Nc2cncc(-c3cnn(C)c3)c2)c1 [Compound 13, (S)-1-((5-(1-methyl-1H-pyrazol-4-yl)pyridin-3-yl)amino)-N-(m-tolyl)-2,3-dihydro-1H-indene-4-carboxamide]
89.6%	100%	94.7%	98.9%	Cn1cc(-c2cncc(N[C@H]3CCc4c(C(=O)Nc5nn(C)c6ccccc56)cccc43)n2)cn1 [Compound 27g, (S)—N-(1-methyl-1H-indazol-3-yl)-1-((6-(1-methyl-1H-pyrazol-4-yl)pyrazin-2-yl)amino)-2,3-dihydro-1H-indene-4-carboxamide]
5.6%	31.4%	32%	85.7%	Cc1cccc(NC(=O)c2cccc3c2CC[C@@H]3Oc2cnc3cn(C)nc3c2)n1 [Compound 76bd]
91.2%	95.9%	97.6%	97.2%	Cn1cc2ncc(O[C@H]3CCc4c(C(=O)Nc5nn(C)c6ccccc56)cccc43)cc2n1 [Compound 76al]
76.8%	99.2%	90.9%	96.8%	Cn1cc(-c2cnc(N)c(O[C@H]3CCc4c(C(=O)Nc5cccc(C6CC6)c5)cccc43)c2)cn1 [Compound 4, (S)-1-((2-amino-5-(1-methyl-1H-pyrazol-4-yl)pyridin-3-yl)oxy)-N-(3-cyclopropylphenyl)-2,3-dihydro-1H-indene-4-carboxamide]
69.9%	104%	69.1%	96.9%	CN(c1cnc2cn(C)nc2c1)[C@H]1CCc2c(C(=O)Nc3nn(C)c4ccccc34)cccc21 [Compound 80l]
58.7%	94.7%	91%	101%	Cc1cncc(NC(=O)c2cccc3c2CC[C@@H]3Nc2cncc(-c3cnn(C)c3)c2)c1 [Compound 14as]
14.5%	62.8%	23.5%	79.7%	Cc1cncc(NC(=O)c2cccc3c2CC[C@@H]3Oc2cncc(-c3cnn(C)c3)c2)c1 [Compound 19j]
22.1%	48.6%	40.5%	86.2%	Cn1cc(-c2cncc(O[C@H]3CCc4c(C(=O)Nc5cncc(Cl)c5)cccc43)c2)cn1 [Compound 19a, (S)—N-(5-chloropyridin-3-yl)-1-((5-(1-methyl-1H-pyrazol-4-yl)pyridin-3-yl)oxy)-2,3-dihydro-1H-indene-4-carboxamide]
13.3%	31.6%	39.6%	64%	Cc1cccc(C(=O)Nc2cccc3c2CC[C@@H]3Oc2cncc(-c3cnn(C)c3)c2)c1 [Compound 15, (S)-3-methyl-N-(1-((5-(1-methyl-1H-pyrazol-4-yl)pyridin-3-yl)oxy)-2,3-dihydro-1H-inden-4-yl)benzamide]
-3.9%	4.9%	3.8%	68.3%	CN(C)Cc1cncc(NC(=O)c2cccc3c2CC[C@@H]3Oc2cncc(-c3cnn(C)c3)c2)c1 [Compound 19h]
61.9%	97.3%	72.7%	98.7%	Cn1cc(-c2cncc(N[C@H]3CCc4c(C(=O)Nc5cncc(Cl)c5)cccc43)c2)cn1 [Compound 14aa, (S)—N-(5-chloropyridin-3-yl)-1-((5-(1-methyl-1H-pyrazol-4-yl)pyridin-3-yl)amino)-2,3-dihydro-1H-indene-4-carboxamide]
30.5%	80.7%	72.8%	98.8%	CN1CCc2ccc(NC(=O)c3cccc4c3CC[C@@H]4Nc3cncc(-c4cnn(C)c4)c3)cc2C1 [Compound 14ap]
11.3%	83.3%	67.6%	99.4%	Cn1cc(-c2cncc(N[C@H]3CCc4c(C(=O)Nc5ccc(C(F)(F)F)nc5)cccc43)c2)cn1 [Compound 14ah]
